Assay [1] has as its system microfilariae of Dirofilaria immitis. The assay is described as follows: Dirofilaria immitis, Microfilaria (DiMF) In vitro Assay. As to conditions: 72 h, read-out: DiMF Minimum Effective Dose (MED), approximately 72 hours incubation, microfilariae assessed for survival or paralysis. In kind it is cell-based.
Assay [2] has as its system 4th stage larvae (L4) of Dirofilaria immitis. The experiment in a line: Dirofilaria immitis, L4 Stage (DiL4) In Vitro Assay. In kind it is cell-based. As to conditions: Dirofilaria immitis, 72 h, read-out: DiL4 Minimum Effective Dose (MED), approximately 72 hours incubation; L4 larvae assessed for survival or paralysis.

On to `CC(C)C[C@H]1C(=O)O[C@H](Cc2ccc(Cn3cc(C#Cc4ccccc4)cn3)cc2)C(=O)N(C)[C@@H](CC(C)C)C(=O)O[C@H](C)C(=O)N(C)[C@@H](CC(C)C)C(=O)O[C@H](Cc2ccccc2)C(=O)N(C)[C@@H](CC(C)C)C(=O)O[C@H](C)C(=O)N1C` [Example 2-64, (3S,6R,9S,12R,15S,18R,21S,24R)-6-benzyl-3,9,15,21-tetraisobutyl-4,10,12,16,22,24-hexamethyl-18-(4-((4-(phenylethynyl)-1H-pyrazol-1-yl)methyl)benzyl)-1,7,13,19-tetraoxa-4,10,16,22-tetraazacyclotetracosan-2,5,8,11,14,17,20,23-octaone], for which the values for the minimal effective concentration in assay [1] and in assay [2] were 0.01 to 0.1 µM and 0.0001 to 0.001 µM, respectively.

For `CC(C)C[C@H]1C(=O)O[C@H](Cc2ccc(Cn3ccnc3C(F)(F)F)cc2)C(=O)N(C)[C@@H](CC(C)C)C(=O)O[C@H](C)C(=O)N(C)[C@@H](CC(C)C)C(=O)O[C@H](Cc2ccccc2)C(=O)N(C)[C@@H](CC(C)C)C(=O)O[C@H](C)C(=O)N1C` [Example 8-12, (3S,6R,9S,12R,15S,18R,21S,24R)-6-benzyl-3,9,15,21-tetraisobutyl-4,10,12,16,22,24-hexamethyl-18-(4-((2-(trifluoromethyl)-1H-imidazol-1-yl)methyl)benzyl)-1,7,13,19-tetraoxa-4,10,16,22-tetraazacyclotetracosan-2,5,8,11,14,17,20,23-octaone], the minimal effective concentration in assay [1] lay in the range of 0.001 to 0.01 µM; in assay [2], 0.0001 to 0.001 µM.

With `Cc1nn(Cc2ccc(C[C@H]3OC(=O)[C@H](CC(C)C)N(C)C(=O)[C@@H](C)OC(=O)[C@H](CC(C)C)N(C)C(=O)[C@@H](Cc4ccc(Cn5ncc(OC(C)C)c5C)cc4)OC(=O)[C@H](CC(C)C)N(C)C(=O)[C@@H](C)OC(=O)[C@H](CC(C)C)N(C)C3=O)cc2)cc1OC(C)C` [Example 1a-39, (3S,6R,9S,12R,15S,18R,21S,24R)-3,9,15,21-tetraisobutyl-6-[[4-[(4-isopropoxy-3-methyl-pyrazol-1-yl)methyl]phenyl]methyl]-18-[[4-[(4-isopropoxy-5-methyl-pyrazol-1-yl)methyl]phenyl]methyl]-4,10,12,16,22,24-hexamethyl-1,7,13,19-tetraoxa-4,10,16,22-tetrazacyclotetracosane-2,5,8,11,14,17,20,23-octaone], the minimal effective concentration in assay [1] was 0.01 to 0.1 µM; in assay [2] it was 0.001 to 0.01 µM.

Regarding `CC(C)C[C@H]1C(=O)O[C@H](Cc2ccc(Cn3cc(I)cn3)cc2)C(=O)N(C)[C@@H](CC(C)C)C(=O)O[C@H](C)C(=O)N(C)[C@@H](CC(C)C)C(=O)O[C@H](Cc2ccccc2)C(=O)N(C)[C@@H](CC(C)C)C(=O)O[C@H](C)C(=O)N1C` [Example 2-41, (3S,6R,9S,12R,15S,18R,21S,24R)-6-benzyl-18-(4-((4-iodo-1H-pyrazol-1-yl)methyl)benzyl)-3,9,15,21-tetraisobutyl-4,10,12,16,22,24-hexamethyl-1,7,13,19-tetraoxa-4,10,16,22-tetraazacyclotetracosan-2,5,8,11,14,17,20,23-octaone], the minimal effective concentration is 0.001 to 0.01 µM in assay [1] and 0.0001 to 0.001 µM in assay [2].

Take `CC(C)C[C@H]1C(=O)O[C@H](Cc2ccc(Cn3ncnc3-c3ccc(Cl)cc3)cc2)C(=O)N(C)[C@@H](CC(C)C)C(=O)O[C@H](C)C(=O)N(C)[C@@H](CC(C)C)C(=O)O[C@H](Cc2ccc(Cn3ncnc3-c3ccc(Cl)cc3)cc2)C(=O)N(C)[C@@H](CC(C)C)C(=O)O[C@H](C)C(=O)N1C` [Example 9-58, (3S,6R,9S,12R,15S,18R,21S,24R)-6,18-bis(4-((5-(4-chlorophenyl)-1H-1,2,4-triazol-1-yl)methyl)benzyl)-3,9,15,21-tetraisobutyl-4,10,12,16,22,24-hexamethyl-1,7,13,19-tetraoxa-4,10,16,22-tetraazacyclotetracosan-2,5,8,11,14,17,20,23-octaone]: the minimal effective concentration in assay [1] fell in the range of 0.01 to 0.1 µM; in assay [2] it was 0.001 to 0.01 µM.

Turning to `CC#Cc1cnn(Cc2ccc(C[C@H]3OC(=O)[C@H](CC(C)C)N(C)C(=O)[C@@H](C)OC(=O)[C@H](CC(C)C)N(C)C(=O)[C@@H](Cc4ccccc4)OC(=O)[C@H](CC(C)C)N(C)C(=O)[C@@H](C)OC(=O)[C@H](CC(C)C)N(C)C3=O)cc2)c1` [Example 2-76, (3S,6R,9S,12R,15S,18R,21S,24R)-6-benzyl-3,9,15,21-tetraisobutyl-4,10,12,16,22,24-hexamethyl-18-(4-((4-(prop-1-yn-1-yl)-1H-pyrazol-1-yl)methyl)benzyl)-1,7,13,19-tetraoxa-4,10,16,22-tetraazacyclotetracosan-2,5,8,11,14,17,20,23-octaone], the minimal effective concentration in assay [1] lay in the range of 0.001 to 0.01 µM; in assay [2] it was 0.0001 to 0.001 µM.

Take `CC(C)C[C@H]1C(=O)O[C@H](Cc2ccc(Cn3ccc(C#N)c3)cc2)C(=O)N(C)[C@@H](CC(C)C)C(=O)O[C@H](C)C(=O)N(C)[C@@H](CC(C)C)C(=O)O[C@H](Cc2ccc(Cn3ccc(C#N)c3)cc2)C(=O)N(C)[C@@H](CC(C)C)C(=O)O[C@H](C)C(=O)N1C` [Example 9-25, 1-[[4-[[(2R,5S,8R,11S,14R,17S,20R,23S)-14-[[4-[(3-cyanopyrrol-1-yl)methyl]phenyl]methyl]-5,11,17,23-tetraisobutyl-4,8,10,16,20,22-hexamethyl-3,6,9,12,15,18,21,24-octaoxo-1,7,13,19-tetraoxa-4,10,16,22-tetrazacyclotetracos-2-yl]methyl]phenyl]methyl]pyrrole-3-carbonitrile]: the minimal effective concentration in assay [1] lay in the range of 0.001 to 0.01 µM; in assay [2], 0.0001 to 0.001 µM.

Turning to `CC(C)C[C@H]1C(=O)O[C@H](Cc2ccc(Cn3cc(C#N)cn3)cc2)C(=O)N(C)[C@@H](CC(C)C)C(=O)O[C@H](C)C(=O)N(C)[C@@H](CC(C)C)C(=O)O[C@H](Cc2ccccc2)C(=O)N(C)[C@@H](CC(C)C)C(=O)O[C@H](C)C(=O)N1C` [Example 2-10, 1-(4-(((2R,5S,8R,11S,14R,17S,20R,23S)-14-benzyl-5,11,17,23-tetraisobutyl-4,8,10,16,20,22-hexamethyl-3,6,9,12,15,18,21,24-octaoxo-1,7,13,19-tetraoxa-4,10,16,22-tetraazacyclotetracosan-2-yl)methyl)benzyl)-1H-pyrazole-4-carbonitrile], the minimal effective concentration in assay [1] was in the range of 0.001 to 0.01 µM; in assay [2] it was 0.0001 to 0.001 µM.

As to `CC(C)C[C@H]1C(=O)O[C@H](Cc2ccc(Cn3nc(C(F)F)cc3C3CC3)cc2)C(=O)N(C)[C@@H](CC(C)C)C(=O)O[C@H](C)C(=O)N(C)[C@@H](CC(C)C)C(=O)O[C@H](Cc2ccc(Cn3nc(C#N)cc3C#N)cc2)C(=O)N(C)[C@@H](CC(C)C)C(=O)O[C@H](C)C(=O)N1C` [Example 1a-7, 1-(4-(((2R,5S,8R,11 S,14R,17S,20R,23S)-14-(4-((5-cyclopropyl-3-(difluoromethyl)-1H-pyrazol-1-yl)methyl)benzyl)-5,11,17,23-tetraisobutyl-4,8,10,16,20,22-hexamethyl-3,6,9,12,15,18,21,24-octaoxo-1,7,13,19-tetraoxa-4,10,16,22-tetraazacyclotetracosan-2-yl)methyl)benzyl)-1H-pyrazole-3,5-dicarbonitrile], the figures for the minimal effective concentration in assay [1] and in assay [2] were 0.001 to 0.01 µM and at most 0.0001 µM, respectively.

`CCC#Cc1cnn(Cc2ccc(C[C@H]3OC(=O)[C@H](CC(C)C)N(C)C(=O)[C@@H](C)OC(=O)[C@H](CC(C)C)N(C)C(=O)[C@@H](Cc4ccccc4)OC(=O)[C@H](CC(C)C)N(C)C(=O)[C@@H](C)OC(=O)[C@H](CC(C)C)N(C)C3=O)cc2)c1` [Example 2-77, (3S,6R,9S,12R,15S,18R,21S,24R)-6-benzyl-18-(4-((4-(but-1-yn-1-yl)-1H-pyrazol-1-yl)methyl)benzyl)-3,9,15,21-tetraisobutyl-4,10,12,16,22,24-hexamethyl-1,7,13,19-tetraoxa-4,10,16,22-tetraazacyclotetracosan-2,5,8,11,14,17,20,23-octaone]: the results for the minimal effective concentration in assay [1] and in assay [2] were 0.001 to 0.01 µM and 0.0001 to 0.001 µM, respectively.

On to `CC(C)C[C@H]1C(=O)O[C@H](Cc2ccc(CN3CCOc4ncccc43)cc2)C(=O)N(C)[C@@H](CC(C)C)C(=O)O[C@H](C)C(=O)N(C)[C@@H](CC(C)C)C(=O)O[C@H](Cc2ccccc2)C(=O)N(C)[C@@H](CC(C)C)C(=O)O[C@H](C)C(=O)N1C` [Example 10-38, (3S,6R,9S,12R,15S,18R,21S,24R)-6-benzyl-18-[[4-(2,3-dihydropyrido[2,3-b][1,4]oxazin-1-ylmethyl)phenyl]methyl]-3,9,15,21-tetraisobutyl-4,10,12,16,22,24-hexamethyl-1,7,13,19-tetraoxa-4, 10,16,22-tetrazacyclotetracosane-2,5,8,11,14,17,20,23-octaone], for which the minimal effective concentration in assay [1] lay in the range of 0.001 to 0.01 µM; in assay [2] it was 0.0001 to 0.001 µM.

On to `CCCc1ccnn1Cc1ccc(C[C@H]2OC(=O)[C@H](CC(C)C)N(C)C(=O)[C@@H](C)OC(=O)[C@H](CC(C)C)N(C)C(=O)[C@@H](Cc3ccc(Cn4nccc4CCC)cc3)OC(=O)[C@H](CC(C)C)N(C)C(=O)[C@@H](C)OC(=O)[C@H](CC(C)C)N(C)C2=O)cc1` [Example 1b-205, (3S,6R,9S,12R,15S,18R,21S,24R)-3,9,15,21-tetraisobutyl-4,6,10,16,18,22-hexamethyl-12,24-bis(4-((5-propyl-1H-pyrazol-1-yl)methyl)benzyl)-1,7,13,19-tetraoxa-4,10,16,22-tetraazacyclotetracosan-2,5,8,11,14,17,20,23-octaone], for which the minimal effective concentration in assay [1] fell in the range of 0.001 to 0.01 µM; in assay [2], 0.0001 to 0.001 µM.

For the molecule `CC(C)C[C@H]1C(=O)O[C@H](Cc2ccc(Cn3nccc3-c3ccccc3)cc2)C(=O)N(C)[C@@H](CC(C)C)C(=O)O[C@H](C)C(=O)N(C)[C@@H](CC(C)C)C(=O)O[C@H](Cc2ccc(Cn3nccc3-c3ccccc3)cc2)C(=O)N(C)[C@@H](CC(C)C)C(=O)O[C@H](C)C(=O)N1C` [Example 1b-128, (3S,6R,9S,12R,15S,18R,21S,24R)-3,9,15,21-tetraisobutyl-4,6,10,16,18,22-hexamethyl-12,24-bis(4-((5-phenyl-1H-pyrazol-1-yl)methyl)benzyl)-1,7,13,19-tetraoxa-4,10,16,22-tetraazacyclotetracosan-2,5,8,11,14,17,20,23-octaone], the minimal effective concentration in assay [1] was 0.01 to 0.1 µM; in assay [2] it was 0.001 to 0.01 µM.

(Values after patent publication US11331369B2, “Endoparasitic depsipeptides” (Zoetis Services LLC, priority 2017, dated 2022).)
